“Also recorded” adds a separate entry of the source. Read-outs that look alike come from different tables or passages of the source. Positions of bridges follow the written chain, without caps; N, C: chain ends. No end group written: not given here.
Tests used:
ASIC3 = details: cited from earlier work; for potency and specificity of ASIC3 inhibition (in words): statement on the majority of currently known inhibitors of ASIC3
Source text: Acid-sensing ion channels (ASICs) are proton-gated sodium channels present in the central and peripheral nervous system of chordates. ASIC3 is highly expressed in sensory neurons and plays an important role in inflammatory and ischemic pain. Thus, specific inhibitors of ASIC3 have the potential to be developed as novel analgesics. […] However, the mechanism of action of APETx2 and the molecular basis for its interaction with ASIC3 is not known. In order to assis ... || The pharmacology of ASIC3 is still relatively poorly understood when compared with voltage-gated sodium (NaV) and calcium (CaV) channels. Thus, the characterization of, and development of structure-activity relationships for, selective ASIC3 modulators will be useful for characterizing the function of ASIC3 under both normal and pathophysiological conditions.

[1] = system: acid-induced and post-operative pain in rats; set-up: method as in PMID 18923424, PMID 21508231, PMID 20860671; details: cited from earlier work
NaV1.8 = details: cited from earlier work
Source text: (§1) The pharmacology of ASIC3 is still relatively poorly understood when compared with voltage-gated sodium (NaV) and calcium (CaV) channels. Thus, the characterization of, and development of structure-activity relationships for, selective ASIC3 modulators will be useful for characterizing the function of ASIC3 under both normal and pathophysiological conditions.

rodent pain models = details: cited from earlier work
Source text: as §1, with “conditions. […] The majority of currently known inhibitors of ASIC3 (e.g., gadolinium, a ...” for “conditions.”

[2] = system: ASIC3-containing channels (ASIC3, ASIC3/1a, ASIC3/1b, ASIC3/2b); details: cited from earlier work
Source text: as §1, with “conditions. […] The majority of currently known inhibitors of ASIC3 (e.g., gadolinium, a ...” for “conditions.”

rat ASIC3 = target: T1, rat ASIC3 (Rattus norvegicus, UniProt O35240); experiment: Inhibition of homomeric rat ASIC3 currents in Xenopus oocytes (two-electrode voltage clamp); type: cell-based; details: rat ASIC3 in Xenopus laevis oocytes; pH drop from 7.4 to 6.0 every minute; -60 mV; RT (18–21 °C); ND96 with 0.1% BSA; pH 6 stimulus buffered with MES
T1 construct: expressed in transfected cells; host or cells: Xenopus laevis oocytes (cRNA injection)
T1 sequence (O35240 1-533): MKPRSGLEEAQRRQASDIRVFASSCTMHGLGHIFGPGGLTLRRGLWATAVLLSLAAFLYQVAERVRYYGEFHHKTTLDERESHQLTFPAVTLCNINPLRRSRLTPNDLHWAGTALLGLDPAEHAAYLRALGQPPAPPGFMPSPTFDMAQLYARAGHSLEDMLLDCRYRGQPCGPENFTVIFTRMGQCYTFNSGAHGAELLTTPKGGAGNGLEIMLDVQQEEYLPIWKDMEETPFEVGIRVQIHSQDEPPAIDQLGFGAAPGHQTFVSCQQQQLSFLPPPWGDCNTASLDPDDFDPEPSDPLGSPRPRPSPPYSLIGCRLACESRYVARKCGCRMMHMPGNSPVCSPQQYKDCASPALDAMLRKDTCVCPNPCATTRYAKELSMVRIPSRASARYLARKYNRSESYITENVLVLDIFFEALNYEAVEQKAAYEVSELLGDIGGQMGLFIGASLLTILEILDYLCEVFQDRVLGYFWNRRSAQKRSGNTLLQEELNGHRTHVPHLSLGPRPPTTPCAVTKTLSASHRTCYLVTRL
Procedure: The efficacy of rAPETx2 was tested on rat ASIC3 expressed in Xenopus laevis oocytes.
Figure 4 (A) Representative current traces comparing the concentration-dependent inhibition of rat ASIC3 (expressed in Xenopus oocytes) by synthetic (s) and recombinant (r) APETx2. (B) Concentration-effect curves for sAPETx2 and an rAPETx2–F15A mutant.
Oocytes were obtained from Xenopus laevis and defolliculatd by treatment with collagenase (Sigma type I). Rat ASIC3 cRNA was synthesised using an mMessage mMachine cRNA transcription kit and healthy stage V–VI oocytes injected with 4 ng rat ASIC3 cRNA (40 nL of 100 ng/μL). Oocytes were kept at 17 °C in ND96 solution (96 mM NaCl, 2 mM KCl, 1 mM CaCl2, 2 mM MgCl2, 5 mM HEPES, 5 mM pyruvic acid, 50 µg/mL gentamicin, 2.5% fetal horse serum, pH 7.4). Membrane currents were recorded 2–6 days post cRNA injection under voltage-clamp (Axoclamp 900A amplifier, Molecular Devices, Sunnyvale, CA, USA) using two standard glass microelectrodes with resistances of 0.5–1 MΩ when filled with 3 M KCl solution. Data acquisition and analysis were performed using pCLAMP software (Version 10, Molecular Devices, Sunnyvale, CA, USA). Oocytes were clamped at −60 mV with data sampled at 1000 Hz and filtered at […]. All experiments were performed at RT (18–21 °C) in ND96 solution containing 0.1% fatty acid free-bovine serum albumin (BSA). […]

For Cc1nc(NC(=N)N)nc2ccccc12 [GMQ, 2-guanidine-4-methylquinazoline], the “ASIC3 agonism (in words)” value (ASIC3; normal pH) is listed as “persistent activation at normal pH”.
For N=C(N)NC(=O)c1nc(Cl)c(N)nc1N [amiloride], the “potency and specificity of ASIC3 inhibition (in words)” value (ASIC3) is listed as “neither potent nor specific”.
In the case of [Gd] [gadolinium], the “potency and specificity of ASIC3 inhibition (in words)” value (ASIC3) is listed as “neither potent nor specific”.
In the case of APETx2, the “effect on acid-induced and post-operative pain (in words)” value [1] is given as “abolish acid-induced and post-operative pain in rats”, the “inhibition of NaV1.8 (in words)” value (NaV1.8) is given as “inhibits NaV 1.8” and the “potency on NaV1.8 relative to ASIC3 (in words)” value (NaV1.8; compared with ASIC3) is given as “lower potency than for ASIC3”. The “analgesic effect in rodent pain models (in words)” value (rodent pain models) was “analgesic in rodent pain models”, the IC50 ([2]; homomeric ASIC3, read-out: IC50 for homomeric ASIC3) was about 60 nM and the IC50 ([2]; upper end of range, depending on the subunit composition of the channel, read-out: IC50 for ASIC3-containing channels (upper end)) was at most 2000 nM. The “potency and selectivity for ASIC3 (in words)” value (ASIC3; ASIC3 / ASIC3-containing channels) was “most potent and selective inhibitor of ASIC3-containing channels; also recorded: only known potent and selective inhibitor of ASIC3; also recorded: specific peptide blocker of ASIC3”.
“GTACSCGNSKGIYWFYRPSCPTDRGYTGSCRYFLGTCCTPAD (disulfide 4-37, 6-30, 20-38) [rAPETx2]” gave an IC50 (rat ASIC3) of 80 nM.

Reference: PMC3407934, “Functional Expression in Escherichia coli of the Disulfide-Rich Sea Anemone Peptide APETx2, a Potent Blocker of Acid-Sensing Ion Channel 3” (Marine Drugs, 2012)
